Assay results from US5552520A, “Therapeutic peptide derivatives” (Biomeasure, Inc., priority 1994, dated 1996).
Each block holds one molecule with its values, some of them ahead of it. Numbered stars: 1 amine (or outer) side, 2 acyl side, 3 side chain; on linkers, the order of the positions; unused ones are H or OH. Bridge positions count the residues as written; N and C are the ends. Square brackets hold non-standard residues; d marks the D form. Peptide text beside a SMILES is read from it. * marks the point of attachment. X2 = O=C([C@@H](Cc1ccccc1)N(CC(CO)(CO)CO)[*:1])[*:2]; 2Nal = N[C@@H](Cc1ccc2ccccc2c1)C(=O)O; X3 = O=C(CN(C(CO)(CO)CO)[*:1])[*:2]; X4 = O=C(CN1CCN(CCO)CC1)*

Tests used:
[1] = system: stimulated growth hormone release; assay: Growth Hormone (GH) Inhibition Assay in rats (D-Ala2-GRF stimulated GH); format: in vivo, male Sprague Dawley rats; conditions: s.c.; for Inhibition of stimulated growth hormone release (percentile control): 25 μg/kg
Procedure: Groups of five male Sprague Dawley rats (each having a weight between 250-300 g) were injected s.c. with a somatostatin derivative or saline. Thirty minutes prior to the selected post-drug time periods shown in table II (2 hours, 4 hours, 6 hours, 8 hours), rats were anesthetized with Nembutal i.p. (50 mg/kg). Fifteen minutes following anesthesia, an aliquot of blood was withdrawn by cardiac puncture over heparin to measure basal GH. Additionally, a s.c. injection of D-Ala^2 -GRF (10 μg/kg) was given. Fifteen minutes later, blood was withdrawn to quantitate the stimulated GH, which was measured in plasma using a radioimmunoassay supplied by NIADDKD. The percentage of GH inhibition was calculated from differences obtained between basal and stimulated GH values.
The efficacy of D-Phe-c[Cys-Tyr-D-Trp-Lys-Thr-Cys]-Nal-NH2 (SEQ ID NO. 113) (BIM-23060) in inhibiting growth hormone in rats is compared with other somatostatin derivatives (BIM-23167, BIM-23179, and BIM-23181) of the invention.
Additional experiments were conducted on D-Phe-c[Cys-Tyr-D-Trp-Lys-Abu-Cys]-Thr-NH2, (SEQ ID NO. 112) a somatostatin analog, and BIM-23190, BIM-23195 and BIM-23197, to determine the ED50 (i.e., the concentration of each compound required to inhibit fifty percent of growth hormone release after a specified time) of the respective compound. Experiments were conducted at a dose range of between 25 μg/kg and 0.25 μg/kg.

somatostatin receptor = biological target: T1, somatostatin receptor (Rattus norvegicus, UniProt P30680); assay: Somatostatin binding assay: in vitro inhibition of binding of [125I-Tyr11]SRIF-14 to rat AR42J pancreas membranes; conditions: inhibition of [125I-Tyr11]SRIF-14 binding, read-out: IC50, in vitro binding affinity
T1 construct: SRIF-14 to rat AR42J pancreas membranes; endogenous in cells; host or cells: rat AR42J pancreatic cells (membrane preparation)
T1 sequence (P30680 whole entry): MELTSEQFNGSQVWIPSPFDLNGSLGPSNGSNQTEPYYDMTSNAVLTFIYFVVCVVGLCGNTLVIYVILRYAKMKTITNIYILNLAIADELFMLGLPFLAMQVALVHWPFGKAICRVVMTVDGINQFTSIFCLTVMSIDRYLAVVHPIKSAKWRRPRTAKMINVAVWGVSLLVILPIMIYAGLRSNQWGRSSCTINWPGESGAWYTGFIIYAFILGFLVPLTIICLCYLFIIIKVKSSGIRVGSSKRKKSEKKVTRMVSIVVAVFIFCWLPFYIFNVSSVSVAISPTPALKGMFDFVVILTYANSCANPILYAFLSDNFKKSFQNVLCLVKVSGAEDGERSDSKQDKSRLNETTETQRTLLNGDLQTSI

[2] = system: AR42J rat pancreas tumor cells; assay: Antiproliferative assay on AR42J cells; format: cell-based; conditions: Concentration 100 nM, AR42J Rat Pancreas Tumor Cells after 8 days
Procedure: The purified somatostatin analogs described above were also tested for activity against rapidly proliferating cells.
^1 Concentration 100 nM, AR42J Rat Pancreas Tumor Cells after 8 days.

Molecule: CC[C@@H]1NC(=O)[C@H](CCCCN)NC(=O)[C@@H](Cc2c[nH]c3ccccc23)NC(=O)[C@H](Cc2ccc(O)cc2)NC(=O)[C@@H](NC(=O)[C@H](N)Cc2ccccc2)CSSC[C@@H](C(=O)N[C@H](C(N)=O)[C@@H](C)O)NC1=O [BIM-23023, D-Phe-c[Cys-Tyr-D-Trp-Lys-Abu-Cys]-Thr-NH2, reference compound]
ED50, inhibition of stimulated growth hormone release ([1]; 2 Hours): 0.48 µg/kg
ED50, inhibition of stimulated growth hormone release ([1]; 4 Hours): 1.11 µg/kg
ED50, inhibition of stimulated growth hormone release ([1]; 6 Hours): 2.26 µg/kg
ED50, inhibition of stimulated growth hormone release ([1]; 8 Hours): 4.32 µg/kg

Molecule: CC[C@@H]1NC(=O)[C@H](CCCCN)NC(=O)[C@@H](Cc2c[nH]c3ccccc23)NC(=O)[C@H](Cc2ccc(O)cc2)NC(=O)[C@@H](NC(=O)[C@@H](Cc2ccccc2)NC(=O)CCC(=O)NC(CO)(CO)CO)CSSC[C@@H](C(=O)N[C@H](C(N)=O)[C@@H](C)O)NC1=O [BIM-23173, (HO-CH2)3 -C-NH-CO-(CH2)2 -CO-D-Phe-c[Cys-Tyr-D-Trp-Lys-Abu-Cys]-Thr-NH2]
IC50 (somatostatin receptor): 0.11 nM

Molecule: CSCC[C@H](NC(=O)[C@H](C)NC(=O)[C@@H]1CCCN1C(=O)[C@H](CC(N)=O)NC(=O)[C@H](CO)NC(=O)[C@H](CC(N)=O)NC(=O)[C@H](C)NC(=O)[C@@H](N)CO)C(=O)N[C@@H](C)C(=O)N1CCC[C@H]1C(=O)N[C@@H](CCCNC(=N)N)C(=O)N[C@@H](CCC(=O)O)C(=O)N[C@@H](CCCNC(=N)N)C(=O)N[C@@H](CCCCN)C(=O)N[C@@H](C)C(=O)NCC(=O)N[C@H]1CSSC[C@@H](C(=O)O)NC(=O)[C@H](CO)NC(=O)[C@H]([C@@H](C)O)NC(=O)[C@H](Cc2ccccc2)NC(=O)[C@H]([C@@H](C)O)NC(=O)[C@H](CCCCN)NC(=O)[C@H](Cc2c[nH]c3ccccc23)NC(=O)[C@H](Cc2ccccc2)NC(=O)[C@H](Cc2ccccc2)NC(=O)[C@H](CC(N)=O)NC(=O)[C@H](CCCCN)NC1=O [SRIF-28, reference compound]
Cell growth (percent of control) [2]: 98.0% of control

Molecule: CC(=O)OCC(COC(C)=O)(COC(C)=O)NC(=O)CCC(=O)N[C@H](Cc1ccc2ccccc2c1)C(=O)N[C@H]1CSSC[C@@H](C(=O)N[C@H](C(N)=O)[C@@H](C)O)NC(=O)[C@H](C(C)C)NC(=O)[C@H](CCCCN)NC(=O)[C@@H](Cc2c[nH]c3ccccc23)NC(=O)[C@H](Cc2ccc(O)cc2)NC1=O [BIM-23107, (AcO-CH2)3 -C-NH-CO-(CH2)2 -CO-D-Nal-c[Cys-Tyr-D-Trp-Lys-Val-Cys]-Thr-NH2]
Cell growth (percent of control) [2]: 67.5% of control

Molecule: CC[C@@H]1NC(=O)[C@H](CCCCN)NC(=O)[C@@H](Cc2c[nH]c3ccccc23)NC(=O)[C@H](Cc2ccc(O)cc2)NC(=O)[C@@H](NC(=O)[C@@H](Cc2ccccc2)NC(=O)CNC(CO)(CO)CO)CSSC[C@@H](C(=O)N[C@H](C(N)=O)[C@@H](C)O)NC1=O [BIM-23182, (HO-CH2)3 -C-NH-CH2 -CO-D-Phe-c[Cys-Tyr-D-Trp-Lys-Abu-Cys]-Thr-NH2]
IC50 (somatostatin receptor): 0.12 nM

Molecule: D-Phe-c[Cys-Tyr-D-Trp-Lys-Thr-Cys]-Nal-NH2 [BIM-23060, reference compound]
Inhibition of stimulated growth hormone release (percentile control) ([1]; 2 Hours): 86.39 percentile control
Inhibition of stimulated growth hormone release (percentile control) ([1]; 4 Hours): 64.96 percentile control
Inhibition of stimulated growth hormone release (percentile control) ([1]; 6 Hours): 47.62 percentile control
Inhibition of stimulated growth hormone release (percentile control) ([1]; 8 Hours): 38.15 percentile control

Molecule: C[C@@H](O)[C@@H]1NC(=O)[C@H](CCCCN)NC(=O)[C@@H](Cc2c[nH]c3ccccc23)NC(=O)[C@H](Cc2ccc(O)cc2)NC(=O)[C@@H](NC(=O)[C@@H](Cc2ccccc2)NC(=O)CNC(CO)(CO)CO)CSSC[C@@H](C(=O)N[C@@H](Cc2ccc3ccccc3c2)C(N)=O)NC1=O [BIM-23179, (HO-CH2)3 -C-NH-CH2 -CO-D-Phe-c[Cys-Tyr-D-Trp-Lys-Thr-Cys]-Nal-NH2] (H-[X3][dF]CY[dW]KTC[2Nal]-NH2; disulfide 3-8)
IC50 (somatostatin receptor): 0.12 nM
Inhibition of stimulated growth hormone release (percentile control) ([1]; 2 Hours): 92.79 percentile control
Inhibition of stimulated growth hormone release (percentile control) ([1]; 4 Hours): 63.85 percentile control
Inhibition of stimulated growth hormone release (percentile control) ([1]; 6 Hours): 67.78 percentile control
Inhibition of stimulated growth hormone release (percentile control) ([1]; 8 Hours): 68.26 percentile control

Molecule: CC[C@@H]1NC(=O)[C@H](CCCCN)NC(=O)[C@@H](Cc2c[nH]c3ccccc23)NC(=O)[C@H](Cc2ccc(O)cc2)NC(=O)[C@@H](NC(=O)[C@@H](Cc2ccccc2)NC(=O)CN2CCN(CCO)CC2)CSSC[C@@H](C(=O)N[C@H](C(N)=O)[C@@H](C)O)NC1=O [BIM-23190]
IC50 (somatostatin receptor): 0.2 nM

Molecule: CC(C)[C@@H]1NC(=O)[C@H](CCCCN)NC(=O)[C@@H](Cc2c[nH]c3ccccc23)NC(=O)[C@H](Cc2ccc(O)cc2)NC(=O)[C@@H](NC(=O)[C@@H](Cc2ccc3ccccc3c2)NC(=O)COC2=C(O)C(=O)O[C@@H]2[C@@H](O)CO)CSSC[C@@H](C(=O)N[C@H](C(N)=O)[C@@H](C)O)NC1=O [BIM-23135]
Cell growth (percent of control) [2]: 62.9% of control

Molecule: CC(C)[C@@H]1NC(=O)[C@H](CCCCN)NC(=O)[C@@H](Cc2c[nH]c3ccccc23)NC(=O)[C@H](Cc2ccc(O)cc2)NC(=O)[C@@H](NC(=O)[C@@H](Cc2ccc3ccccc3c2)NC(=O)CCC(=O)NC(CO)(CO)CO)CSSC[C@@H](C(=O)N[C@H](C(N)=O)[C@@H](C)O)NC1=O [BIM-23158, (HO-CH2)3 -C-NH-CO-(CH2)2 -CO-D-Nal-c[Cys-Tyr-D-Trp-Lys-Val-Cys]-Thr-NH2]
IC50 (somatostatin receptor): 0.33 nM

Molecule: C[C@H](N)C(=O)NCC(=O)N[C@H]1CSSC[C@@H](C(=O)O)NC(=O)[C@H](CO)NC(=O)[C@H]([C@@H](C)O)NC(=O)[C@H](Cc2ccccc2)NC(=O)[C@H]([C@@H](C)O)NC(=O)[C@H](CCCCN)NC(=O)[C@H](Cc2c[nH]c3ccccc23)NC(=O)[C@H](Cc2ccccc2)NC(=O)[C@H](Cc2ccccc2)NC(=O)[C@H](CC(N)=O)NC(=O)[C@H](CCCCN)NC1=O [SRIF-14, reference compound]
Cell growth (percent of control) [2]: 91.3% of control

Molecule: CC[C@@H]1NC(=O)[C@H](CCCCN)NC(=O)[C@@H](Cc2c[nH]c3ccccc23)NC(=O)[C@H](Cc2ccc(O)cc2)NC(=O)[C@@H](NC(=O)[C@@H](Cc2ccccc2)NC(=O)COC2=C(OCC(O)CO)C(=O)O[C@@H]2[C@@H](O)CO)CSSC[C@@H](C(=O)N[C@H](C(N)=O)[C@@H](C)O)NC1=O (stereo partly shown) [BIM-23183]
Cell growth (percent of control) [2]: 69.1% of control

Next, values leading:

IC50 (somatostatin receptor): 0.18 nM
Molecule: CC[C@@H]1NC(=O)[C@H](CCCCN)NC(=O)[C@@H](Cc2c[nH]c3ccccc23)NC(=O)[C@H](Cc2ccc(O)cc2)NC(=O)[C@@H](NC(=O)[C@@H](Cc2ccccc2)NC(=O)CN2CCN(CCOCCO)CC2)CSSC[C@@H](C(=O)N[C@H](C(N)=O)[C@@H](C)O)NC1=O [BIM-23202]

IC50 (somatostatin receptor): 0.14 nM
Molecule: C[C@@H](O)[C@@H]1NC(=O)[C@H](CCCCN)NC(=O)[C@@H](Cc2c[nH]c3ccccc23)NC(=O)[C@H](Cc2ccc(O)cc2)NC(=O)[C@@H](NC(=O)[C@@H](Cc2ccccc2)NCC(CO)(CO)CO)CSSC[C@@H](C(=O)N[C@@H](Cc2ccc3ccccc3c2)C(N)=O)NC1=O [BIM-23201, (HO-CH2)3 -C-CH2 -D-Phe-c[Cys-Tyr-D-Trp-Lys-Thr-Cys]-Nal-NH2] (H-[X2]CY[dW]KTC[2Nal]-NH2; disulfide 2-7)

IC50 (somatostatin receptor): 0.29 nM
Molecule: CC[C@@H]1NC(=O)[C@H](CCCCN)NC(=O)[C@@H](Cc2c[nH]c3ccccc23)NC(=O)[C@H](Cc2ccc(O)cc2)NC(=O)[C@@H](NC(=O)[C@@H](Cc2ccccc2)NS(=O)(=O)CCN2CCN(CCO)CC2)CSSC[C@@H](C(=O)N[C@H](C(N)=O)[C@@H](C)O)NC1=O [BIM-23197]

IC50 (somatostatin receptor): 0.08 nM
Molecule: CC[C@@H]1NC(=O)[C@H](CCCCN)NC(=O)[C@@H](Cc2c[nH]c3ccccc23)NC(=O)[C@H](Cc2ccc(O)cc2)NC(=O)[C@@H](NC(=O)[C@@H](Cc2ccccc2)NCC(CO)(CO)CO)CSSC[C@@H](C(=O)N[C@H](C(N)=O)[C@@H](C)O)NC1=O [BIM-23195, (Ho-CH2)3 C-CH2 -D-Phe-C[Cys-Tyr-D-Trp-Lys-Abu-Cys]-Thr-NH2]

IC50 (somatostatin receptor): 0.08 nM
Molecule: C[C@@H](O)[C@@H]1NC(=O)[C@H](CCCCN)NC(=O)[C@@H](Cc2c[nH]c3ccccc23)NC(=O)[C@H](Cc2ccc(O)cc2)NC(=O)[C@@H](NC(=O)[C@@H](Cc2ccccc2)NC(=O)CN2CCN(CCO)CC2)CSSC[C@@H](C(=O)N[C@@H](Cc2ccc3ccccc3c2)C(N)=O)NC1=O [BIM-23191] (X4-[dF]CY[dW]KTC[2Nal]-NH2; disulfide 2-7)

IC50 (somatostatin receptor): 0.09 nM
Molecule: CC[C@@H]1NC(=O)[C@H](CCCCN)NC(=O)[C@@H](Cc2c[nH]c3ccccc23)NC(=O)[C@H](Cc2ccc(O)cc2)NC(=O)[C@@H](NC(=O)[C@@H](Cc2ccccc2)NS(=O)(=O)CCNC(CO)(CO)CO)CSSC[C@@H](C(=O)N[C@H](C(N)=O)[C@@H](C)O)NC1=O [BIM-23196]
